According to patent publication US9957253B2, “Triaminopyrimidine compounds useful for preventing or treating malaria” (MMV MEDICINES FOR MALARIA VENTURE, priority 2014, dated 2018):
Counter-ions that a name gives are not always drawn. Like-named read-outs stand apart in the source and are kept apart here.

Columns and labels:
[1] = Blood:Plasma (BP) ratio, rat; format: in vitro ADME
[2] = system: chloroquine-resistant K1 strain of P. falciparum; experiment: In vitro antiplasmodial activity (SYBR I), K1 strain; format: cell-based, Plasmodium falciparum; details: Plasmodium falciparum
Method: (§1) Measuring In Vitro Antiplasmodial Activity
(§2) The test samples were tested in duplicate on two separate occasions against chloroquine sensitive NF54 (MRA-1000, MR4, ATCC, Manassas, Va.) and chloroquine-resistant K1 strains of P. falciparum. A modified method of Trager and Jensen was employed to maintain continuous in vitro cultures of asexual blood stages of P. falciparum (Trageret al., 1976, Science, 193, 673-675). Quantitative assessment of antiplasmodial activity in vitro was determined using the SYBR I method as described earlier (Johnson et al., 2007, Antimicrob. Agents Chemother., 51, 1926-1933).
(§3) The percent inhibition with respect to the drug-free control was plotted against the logarithm of drug concentration. The growth inhibition curves were fitted by nonlinear regression using the sigmoidal dose-response (variable slope) formula to yield the concentration-response curves. […] Chloroquine diphosphate (CQ) (Sigma), artesunate (Sigma), and pyrimethamine were used as reference drugs in all experiments.

[3] = target: T1, human CYP 1A2 (Homo sapiens, UniProt P05177); experiment: Time dependent CYP inhibition assay, CYP 1A2; format: in vitro ADME
T1 sequence (P05177 1-516): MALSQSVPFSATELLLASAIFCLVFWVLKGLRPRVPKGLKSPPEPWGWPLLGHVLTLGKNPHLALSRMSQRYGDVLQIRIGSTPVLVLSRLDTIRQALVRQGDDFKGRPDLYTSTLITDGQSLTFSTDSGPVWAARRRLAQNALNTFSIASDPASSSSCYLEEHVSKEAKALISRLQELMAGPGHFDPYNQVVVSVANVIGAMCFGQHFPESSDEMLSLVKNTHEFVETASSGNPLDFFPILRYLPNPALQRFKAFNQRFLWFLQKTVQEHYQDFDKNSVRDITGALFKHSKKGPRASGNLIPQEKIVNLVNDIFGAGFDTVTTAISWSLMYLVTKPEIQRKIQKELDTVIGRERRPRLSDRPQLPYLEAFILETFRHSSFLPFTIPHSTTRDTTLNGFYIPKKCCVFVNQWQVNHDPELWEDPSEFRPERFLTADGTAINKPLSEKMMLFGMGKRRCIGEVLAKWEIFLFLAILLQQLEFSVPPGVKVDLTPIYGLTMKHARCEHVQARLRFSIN

[4] = system: chloroquine sensitive NF54 strain of P. falciparum; experiment: In vitro antiplasmodial activity (SYBR I), NF54 strain; format: cell-based, Plasmodium falciparum; details: Plasmodium falciparum
Method: as §1, §2, §3

[5] = Pharmacokinetic studies (IVPK/POPK) in male Wistar rats; format: in vivo; details: Rat; for Oral ‘F’ / ½ life (PO PK): 5 mg/kg Examples 7 and 10, 10 mg/kg Example 13; for clearance / Vd: male, Wistar, IV bolus, 0.5 mg/kg Examples 7 and 10, 2 mg/kg Example 13; for clearance: read-out: CL blood; for Vd: read-out: Vss blood
Method: All in vivo studies were approved by the institutional animal ethics committee. Pharmacokinetics following IV bolus (IVPK) or oral administration (POPK) of compounds was determined in male Wistar rats or male Beagle dogs. For IVPK in rats, Example 7 and Example 10 were administered as solutions in 20% DMA, 80% phosphate-buffered saline and Example 13 was administered as a solution in 10% v/v NMP, 20% v/v DMA in saline. For POPK, Example 7 and Example 10 were administered as suspensions in 20% DMA, 80% phosphate buffered saline and Example 13 was administered as a suspension in 0.5% HPMC and 0.1% Tween 80 through an oral gavage. Example 13 was administered to dogs as a solution in 10% Ethanol, 30% PEG 400, 60% saline for IVPK and as a suspension in 0.5% HPMC, and 0.1% Tween 80 for POPK. Doses used for rat and dog PK were 0.5 mg/kg for Examples 7 and 10 or 2 mg/kg for Example 13 (IVPK). Doses of 5 mg/kg for Examples 7 and 10 were used during POPK. Doses of 10 mg/kg were used for Example 13 during POPK studies. Blood samples were collected at 8 to 13 time points (0, 0.0833, 0.25, 0.283, 0.333, 0.417, 0.75, 1.25, 3.25, 6.25, 12.25, 24.25 h for dog IVPK; 0, 0.25, 0.5, 1, 1.5, 2, 3, 4, 8, 12, 24, 32, 48 h for dog POPK; 0.083, 0.25, 0.5, 1, 2, 4, 7, 24 h for rat IVPK; 0.25, 1, 3, 6, 12, 24, 36, 48 h for rat POPK) after dosing. Blood (rat) or plasma (dog) samples were analysed by LC-MS/MS. PK parameters were estimated by non-compartmental analysis in Phoenix®.

[6] = target: T2, human CYP 2D6 (Homo sapiens, UniProt P10635); experiment: CYP inhibition assay, CYP 2D6; format: in vitro ADME
T2 construct: Mixture of 180 μL of 20 mg/mL HLM and 90 μL of substrate cocktail solution; from tissue; host or cells: human liver microsomes (HLM)
T2 sequence (P10635 whole entry): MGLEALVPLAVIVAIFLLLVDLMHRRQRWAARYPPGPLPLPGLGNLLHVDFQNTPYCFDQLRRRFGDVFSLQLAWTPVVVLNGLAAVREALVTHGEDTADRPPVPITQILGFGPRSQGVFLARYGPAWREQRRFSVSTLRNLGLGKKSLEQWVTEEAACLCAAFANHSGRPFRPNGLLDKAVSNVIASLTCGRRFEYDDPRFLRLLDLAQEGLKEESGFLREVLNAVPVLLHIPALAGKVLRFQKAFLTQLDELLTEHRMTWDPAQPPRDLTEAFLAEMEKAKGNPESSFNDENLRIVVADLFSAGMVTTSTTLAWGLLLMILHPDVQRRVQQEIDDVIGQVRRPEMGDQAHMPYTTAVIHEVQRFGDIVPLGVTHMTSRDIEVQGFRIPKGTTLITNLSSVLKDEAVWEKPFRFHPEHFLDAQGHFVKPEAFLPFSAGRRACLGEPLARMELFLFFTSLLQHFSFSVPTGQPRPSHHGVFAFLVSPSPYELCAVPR
Method: This study was conducted using specific substrates for 5 major human CYP isozymes. These substrates were used as a cocktail (phenacetin, diclofenac, S-mephenytoin, bufuralol and midazolam which are predominantly metabolised by CYP 1A2, 2C9, 2C19, 2D6 and 3A4/5, respectively) at concentrations equivalent to their respective Km values. LC-MS-MS (MRM mode) was used to follow the formation of the CYP specific metabolites. A decrease in the formation of the metabolites in peak area to vehicle control was used to calculate the IC50 value. […] Test compound was used at 6 different concentrations ([…]) to estimate IC50.
The incubation was carried out in 96 deep well plates. Mixture of 180 μL of 20 mg/mL HLM and 90 μL of substrate cocktail solution was added to 15840 μL of phosphate buffer and 179 μL of this mixture was mixed with 1 μL of the test compound, inhibitor cocktail solution or vehicle in each well. The final concentration of DMSO:ACN in the assay mix was 0.3:0.7% v/v. The incubation plate was placed into the water bath and pre-warmed at 37° C. for 5 min before the reactions were started by the addition of 20 μL of 10 mmol/L NADPH solution in phosphate buffer. After the addition of NADPH, the incubation plate was incubated at 37° C. for a further 5 min. The reaction was quenched by the addition of 1 volume (200 μL) of cold ACN containing 3% formic acid and 40 nmol/L verapamil. The plates were kept on ice for 20 min and then centrifuged at 4000 rpm for 30 min to precipitate protein. The supernatant 180 μL was transferred to the analysis plate for LC/MS/MS analysis.

[7] = K1 strain, chloroquine-resistant, read-out: Pf IC50—K1
[8] = NF54 strain, chloroquine sensitive, read-out: Pf IC50—NF54
[9] = human liver microsomes, substrate cocktail, read-out: IC50 CYP 2D6

Structure (SMILES) | BP ratio [1] | IC50 [2, 7] [nM] | IC50 [3] [nM] | IC50 [4, 8] [nM] | Oral ‘F’ [5] [%] | ½ life (PO PK) [5] [h] | clearance ([5]; blood) [mL/min/kg] | Vd ([5]; blood) [L/kg] | IC50 [6, 9] [nM] | IC50 ([2]; K1, read-out: Pf IC50—K1) [nM] | IC50 ([4]; NF54, read-out: Pf IC50—NF54) [nM] | clearance ([5]; in vivo) [mL/min/kg] | Vd ([5]; in vivo) [L/kg] | IC50 [6] [nM]
Cc1nc(Nc2ncc(N3CCN(C)[C@H](C)C3)c(Nc3cc(C)n(C)n3)n2)cc(C2CC2)c1F [Example 13, (R)—N2-(4-cyclopropyl-5-fluoro-6-methylpyridin-2-yl)-N4-(1,5-dimethyl-1H-pyrazol-3-yl)-5-(3,4-dimethylpiperazin-1-yl)pyrimidine-2,4-diamine] | 1.06 | 15 | > 56000 | 9 | 80 | 10 | 9.8 | 7.9 | > 30000 |  |  |  |  | 
Cc1nc(Nc2ncc(N3CCN[C@H](C)C3)c(Nc3cnn(C)n3)n2)cc(C2CC2)c1Cl [Example 10, (R)—N2-(5-chloro-4-cyclopropyl-6-methylpyridin-2-yl)-N4-(2-methyl-2H-1,2,3-triazol-4-yl)-5-(3-methylpiperazin-1-yl)pyrimidine-2,4-diamine dihydochloride] | 1.7 | 19 | > 56000 | 13 | 17 | 30 | 22.5 | 9.7 | > 30000 |  |  |  |  | 
CCc1cc(Nc2ncc(N3CCN[C@H](C)C3)c(Nc3cc(C)n(C)n3)n2)nc(C)c1F [Example 7, (R)—N4-(1,5-dimethyl-1H-pyrazol-3-yl)-N2-(4-ethyl-5-fluoro-6-methylpyridin-2-yl)-5-(3-methylpiperazin-1-yl)pyrimidine-2,4-diamine dihydrochloride] | 2.2 |  | > 56000 |  | 31 | 10 |  |  |  | 45 | 27 | 26.6 | 12 | > 30000
